Here are results for 18 compounds from patent US12344606B2, “Next-generation modulators of stimulator of interferon genes (STING)” (RYVU THERAPEUTICS S.A., priority 2019, dated 2025).

In general, EC50 refers to the concentration giving half of the maximal effect.

Assay [1] concerns the target human STING (Homo sapiens, UniProt Q86WV6). The experiment in a line: Fluorescence Thermal Shift assay (hSTING FTS binding assay). As to conditions: STING 0.1 mg/ml, 20 min preincubation, SyproOrange. The protocol: Compounds of the present invention were tested for binding to human STING in Fluorescence Thermal Shift assay. STING was preincubated with the compounds for 20 minutes in 50 mM Hepes, 150 mM NaCl, pH 7.5 in 16 μl volume, following by adding 4 μl of SyproOrange dye dilution (ThermoFisher, cat no. S-6651). Final STING concentration was 0.1 mg/ml. Thermal unfolding was performed in Real-Time PCR QuantStudio 6 Flex System (Applied Biosystems), from 25 to 99° C., with continuous ramp mode and ramp rate 0.033° C./s. The data were analyzed using Protein Thermal Shift Software (ThermoFisher).

Assay [2] relates to interferon regulatory factor (IRF) pathway in THP-1 dual cells. The experiment in a line: THP-1 Dual reporter assay, IRF pathway (luciferase). The class given is cell-based. As to conditions: Homo sapiens, THP1-Dual; 18 h stimulation, luminescence. The method, then:
(§1) Compounds of the present invention were tested for their activity using THP-1 dual cells (Invivogen, cat no. thpd-nfis) allowing for simultaneous study of NF-κB pathway and the interferon regulatory factor (IRF) pathway. THP-1 dual cells contain luciferase reporter gene under the control of an ISG54 (interferon-stimulated gene) minimal promoter in conjunction with five interferon-stimulated response elements and a secreted embryonic alkaline phosphatase reporter gene under the control an IFN (interferon)-β minimal promoter fused to five copies of the NF-κB consensus transcriptional response element with three copies of the c-Rel binding site. Following 18 h of stimulation with STING agonist, medium was collected and transferred onto fresh cell culture plate. To verify activity of the IRF pathway, luminescence activity was measured with standard laboratory plate reader immediately after addition 10 μl of the medium to 50 μl (or 40 μl) of luminescence reagent (Invivogen, cat. No. rep-qlc2). To verify activity of NF-κB pathway, 20 μl (or 10 μl) of the medium was mixed with 80 μl of a detection medium (Invivogen, cat. No. rep-qb2) and incubated for 2 hours (or 1 hour) at 37° C. in a humidified atmosphere containing 5% CO2. Next, absorbance at 630 nm (or 655 nm) was recorded using standard laboratory plate reader.
A general note: In a reporter assay the amount or activity of a reporter protein is the signal.

Assay [3] relates to NF-κB pathway in THP-1 dual cells. The experiment in a line: THP-1 Dual reporter assay, NF-κB pathway (SEAP). The format is cell-based. The settings on record: Homo sapiens, THP1-Dual; 18 h stimulation, absorbance; read-out: THP1 Dual EC50 (μM) NFkB. The method, then: as §1

Chain of human STING (Q86WV6 whole entry H232R): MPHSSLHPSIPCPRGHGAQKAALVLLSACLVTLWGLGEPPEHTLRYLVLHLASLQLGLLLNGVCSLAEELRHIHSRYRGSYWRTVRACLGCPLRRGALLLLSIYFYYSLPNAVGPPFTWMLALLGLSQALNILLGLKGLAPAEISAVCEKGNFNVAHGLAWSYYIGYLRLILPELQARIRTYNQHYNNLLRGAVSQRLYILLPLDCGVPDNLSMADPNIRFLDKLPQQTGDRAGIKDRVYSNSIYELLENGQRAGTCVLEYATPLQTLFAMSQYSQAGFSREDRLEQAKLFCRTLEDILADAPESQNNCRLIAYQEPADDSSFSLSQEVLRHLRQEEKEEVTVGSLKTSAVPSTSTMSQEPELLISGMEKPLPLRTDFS

For `Cc1ccc(N2CCC[C@H](N(Cc3ccnc(C)c3)Cc3cn(C4CC4)c4cc(Cl)ncc4c3=O)C2)cn1` [Example 56, 7-chloro-1-cyclopropyl-3-({[(3S)-1-(6-methylpyridin-3-yl)piperidin-3-yl][(2-methylpyridin-4-yl)methyl]amino}methyl)-1,4-dihydro-1,6-naphthyridin-4-one], the “hSTING FTS binding assay (ΔT C.°)” value in assay [1] was “+ (ΔTm<10° C.)”. In addition, the results for the concentration for a half-maximal effect (EC50) in assay [2] and in assay [3] were not above 1 µM and 1 to 10 µM, respectively.

On to `Cc1cc(CN(Cc2cn(C)c3ccccc3c2=O)[C@H]2CCCN(c3cc(=O)[nH]cn3)C2)ccn1` [Example 22, 1-methyl-3-({[(2-methylpyridin-4-yl)methyl][(3S)-1-(6-oxo-1,6-dihydropyrimidin-4-yl)piperidin-3-yl]amino}methyl)-1,4-dihydroquinolin-4-one], for which the “hSTING FTS binding assay (ΔT C.°)” value in assay [1] is given as “++ (ΔTm>10° C.)”. The 50% effective concentration (EC50) in assay [2] and in assay [3] was not below 10 µM each time.

In the case of `Cc1cc(CN(Cc2cn(C)c3ccccc3c2=O)[C@H]2CCCN(c3ccn(C)c(=O)c3)C2)ccn1` [Example 41, 1-methyl-3-({[(3S)-1-(1-methyl-2-oxo-1,2-dihydropyridin-4-yl)piperidin-3-yl][(2-methylpyridin-4-yl)methyl]amino}methyl)-1,4-dihydroquinolin-4-one], the “hSTING FTS binding assay (ΔT C.°)” value in assay [1] was “+ (ΔTm<10° C.)”. Moreover, the concentration for a half-maximal effect (EC50) in assay [2] and in assay [3] was not below 10 µM throughout.

As for `COc1cc2c(cc1F)c(=O)c(CN(Cc1ccnc(C)c1)[C@H]1CCCN(c3ccc(C)nc3)C1)cn2C1CC1` [Example 45, 1-cyclopropyl-6-fluoro-7-methoxy-3-({[(3S)-1-(6-methylpyridin-3-yl)piperidin-3-yl][(2-methylpyridin-4-yl)methyl]amino}methyl)-1,4-dihydroquinolin-4-one], the “hSTING FTS binding assay (ΔT C.°)” value in assay [1] is “++ (ΔTm>10° C.)”. For the same compound, the concentration for a half-maximal effect (EC50) in assay [2] and in assay [3] was not above 1 µM in each case.

With `Cc1ccc(N2CCC[C@H](N(Cc3ccnc(C)c3)Cc3cn(C4CC4)c4nc(Cl)c(F)cc4c3=O)C2)cn1` [Example 42, 7-chloro-1-cyclopropyl-6-fluoro-3-({[(3S)-1-(6-methylpyridin-3-yl)piperidin-3-yl][(2-methylpyridin-4-yl)methyl]amino}methyl)-1,4-dihydro-1,8-naphthyridin-4-one], in assay [1], the “hSTING FTS binding assay (ΔT C.°)” value was “++ (ΔTm>10° C.)”. Further, the EC50 in assay [2] and in assay [3] was not above 1 µM throughout.

For the compound `Cc1ccc(N2CCC[C@H](N(Cc3ccnc(C)c3)Cc3cn(C4CC4)c4cc(N5CCNC6(CC6)C5)c(F)cc4c3=O)C2)cn1` [Example 52, 1-cyclopropyl-7-{4,7-diazaspiro[2.5]octan-7-yl}-6-fluoro-3-({[(3S)-1-(6-methylpyridin-3-yl)piperidin-3-yl][(2-methylpyridin-4-yl)methyl]amino}methyl)-1,4-dihydroquinolin-4-one], the “hSTING FTS binding assay (ΔT C.°)” value in assay [1] is given as “++ (ΔTm>10° C.)”. Moreover, the EC50 in assay [2] and in assay [3] was not above 1 µM in each case.

Take `COC(=O)C1CCN(c2ccc3c(=O)c(CN(Cc4ccnc(C)c4)[C@H]4CCCN(c5cccnc5)C4)cn(C)c3c2)CC1` [Example 29, Methyl 1-[1-methyl-3-({[(2-methylpyridin-4-yl)methyl][(3S)-1-(pyridin-3-yl)piperidin-3-yl]amino}methyl)-4-oxo-1,4-dihydroquinolin-7-yl]piperidine-4-carboxylate]: in assay [1], the “hSTING FTS binding assay (ΔT C.°)” value was “++ (ΔTm>10° C.)”. For the same compound, the half-maximal effective concentration (EC50) in assay [2] and in assay [3] was not above 1 µM in each case.

On to `Cc1cc(CN(Cc2cn(C)c3ccccc3c2=O)[C@H]2CCCN(c3cccnc3[N+](=O)[O-])C2)ccn1` [Example 36, 1-methyl-3-({[(2-methylpyridin-4-yl)methyl][(3S)-1-(2-nitropyridin-3-yl)piperidin-3-yl]amino}methyl)-1,4-dihydroquinolin-4-one], for which the “hSTING FTS binding assay (ΔT C.°)” value in assay [1] was “+ (ΔTm<10° C.)”. The EC50 in assay [2] and in assay [3] was not below 10 µM in each case.

Regarding `COc1cc(CN(Cc2cn(C)c3ccccc3c2=O)C2CCCN(c3cccnn3)C2)ccn1` (stereo not drawn) [Example 3, 3-({[(2-methoxypyridin-4-yl)methyl][1-(pyridazin-3-yl)piperidin-3-yl]amino}methyl)-1-methyl-1,4-dihydroquinolin-4-one], the “hSTING FTS binding assay (ΔT C.°)” value in assay [1] is “+ (ΔTm<10° C.)”. In addition, the concentration for a half-maximal effect (EC50) in assay [2] and in assay [3] was not below 10 µM in each case.

Consider `Cc1cc(CN(Cc2cn(C)c3ccccc3c2=O)[C@H]2CCCN(c3ccc([N+](=O)[O-])nc3)C2)ccn1` [Example 14, 1-methyl-3-({[(2-methylpyridin-4-yl)methyl][(3S)-1-(6-nitropyridin-3-yl)piperidin-3-yl]amino}methyl)-1,4-dihydroquinolin-4-one], for which the “hSTING FTS binding assay (ΔT C.°)” value in assay [1] was “+ (ΔTm<10° C.)”. The EC50 in assay [2] was 1 to 10 µM; in assay [3], not below 10 µM.

Regarding `Cc1cc(CN(Cc2cn(C)c3ccccc3c2=O)[C@H]2CCCN(c3cc[nH]c(=O)c3)C2)ccn1` [Example 30, 1-methyl-3-({[(2-methylpyridin-4-yl)methyl][(3S)-1-(2-oxo-1,2-dihydropyridin-4-yl)piperidin-3-yl]amino}methyl)-1,4-dihydroquinolin-4-one], in assay [1], the “hSTING FTS binding assay (ΔT C.°)” value is “+ (ΔTm<10° C.)”. In addition, the EC50 in assay [2] and in assay [3] was not below 10 µM throughout.

For `Cc1ccc(N2CCC[C@H](N(Cc3ccnc(C)c3)Cc3cn(C4CC4)c4[nH]c(=O)c(F)cc4c3=O)C2)cn1` [Example 43, 1-cyclopropyl-6-fluoro-7-hydroxy-3-({[(3S)-1-(6-methylpyridin-3-yl)piperidin-3-yl][(2-methylpyridin-4-yl)methyl]amino}methyl)-1,4-dihydro-1,8-naphthyridin-4-one], in assay [1], the “hSTING FTS binding assay (ΔT C.°)” value is reported as “++ (ΔTm>10° C.)”. The half-maximal effective concentration (EC50) in assay [2] and in assay [3] was not below 10 µM each time.

Turning to `Cc1cc(CN(Cc2cn(C)c3ccccc3c2=O)[C@H]2CCCN(c3ccc(F)nc3)C2)ccn1` [Example 16, 3-({[(3S)-1-(6-fluoropyridin-3-yl)piperidin-3-yl][(2-methylpyridin-4-yl)methyl]amino}methyl)-1-methyl-1,4-dihydroquinolin-4-one], the “hSTING FTS binding assay (ΔT C.°)” value in assay [1] is given as “+ (ΔTm<10° C.)”. The EC50 in assay [2] and in assay [3] was 1 to 10 µM in each case.

As to `Cc1cc(CN(Cc2cn(C)c3ccccc3c2=O)[C@H]2CCCN(c3nnc(C)o3)C2)ccn1` [Example 53, 1-methyl-3-({[(3S)-1-(5-methyl-1,3,4-oxadiazol-2-yl)piperidin-3-yl][(2-methylpyridin-4-yl)methyl]amino}methyl)-1,4-dihydroquinolin-4-one], the “hSTING FTS binding assay (ΔT C.°)” value in assay [1] is reported as “+ (ΔTm<10° C.)”. Besides, the concentration giving a half-maximal response (EC50) was not below 10 µM in assay [2] and 1 to 10 µM in assay [3].

Take `COc1cc(CN(Cc2cn(C3CC3)c3cc(F)c(F)cc3c2=O)[C@H]2CCCN(c3cccnc3)C2)ccn1` [Example 11, 1-cyclopropyl-6,7-difluoro-3-({[(2-methoxypyridin-4-yl)methyl][(3S)-1-(pyridin-3-yl)piperidin-3-yl]amino}methyl)-1,4-dihydroquinolin-4-one]: the “hSTING FTS binding assay (ΔT C.°)” value in assay [1] is listed as “++ (ΔTm>10° C.)”. For the same compound, the EC50 in assay [2] and in assay [3] was not above 1 µM each time.

`Cc1cc(CN(Cc2cn(C)c3ccccc3c2=O)[C@H]2CCCN(c3ccccn3)C2)ccn1` [Example 13, 1-methyl-3-({[(2-methylpyridin-4-yl)methyl][(3S)-1-(pyridin-2-yl)piperidin-3-yl]amino}methyl)-1,4-dihydroquinolin-4-one]: the “hSTING FTS binding assay (ΔT C.°)” value in assay [1] is “+ (ΔTm<10° C.)”. Also, the 50% effective concentration (EC50) in assay [2] and in assay [3] was 1 to 10 µM throughout.

Turning to `Cc1ccc(N2CCC[C@H](N(Cc3ccnc(C)c3)Cc3cn(C4CC4)c4cc(O)c(F)cc4c3=O)C2)cn1` [Example 59, 1-cyclopropyl-6-fluoro-7-hydroxy-3-({[(3S)-1-(6-methylpyridin-3-yl)piperidin-3-yl][(2-methylpyridin-4-yl)methyl]amino}methyl)-1,4-dihydroquinolin-4-one], the “hSTING FTS binding assay (ΔT C.°)” value in assay [1] is on record as “++ (ΔTm>10° C.)”. In addition, the figures for the EC50 in assay [2] and in assay [3] were not above 1 µM and 1 to 10 µM, respectively.

`Cc1ccc(N2CCC[C@H](N(Cc3ccnc(C)c3)Cc3cn(C4COC4)c4ccccc4c3=O)C2)cn1` [Example 50, 3-({[(3S)-1-(6-methylpyridin-3-yl)piperidin-3-yl][(2-methylpyridin-4-yl)methyl]amino}methyl)-1-(oxetan-3-yl)-1,4-dihydroquinolin-4-one]: the “hSTING FTS binding assay (ΔT C.°)” value in assay [1] is “++ (ΔTm>10° C.)”. For the same compound, the EC50 in assay [2] and in assay [3] was not above 1 µM in each case.
